In patent US12077503B2, “Substituted cyclic amides and their use as herbicides” (FMC CORPORATION, priority 2015, dated 2024):

Tests used:
Format in all cases: in vivo
[1] = test system: giant foxtail (Setaria faberii); assay: Test A postemergence; details: Setaria faberi, post-emergence, 240 h, Postemergence, read-out: Plant response rating, Foxtail, Giant
Outline: (§1)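 Visual injury, scored on a 0–100 scale relative to untreated controls, was recorded about 10 d after application. Treatments were a preemergence soil spray over planted seeds or a postemergence spray on plants at the one- to two-leaf stage, 2 to 10 cm tall, all in loam soil–sand blend in the greenhouse.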

[2] = test system: ryegrass, Italian (Italian ryegrass, Lolium multiflorum); assay: Test A postemergence; details: Lolium multiflorum, post-emergence, 240 h, Postemergence, read-out: Plant response rating, Ryegrass, Italian
Outline: as §1

[3] = test system: barnyardgrass (Echinochloa crus-galli); assay: Test A postemergence; details: Echinochloa crus-galli, post-emergence, 240 h, Postemergence, read-out: Plant response rating, Barnyardgrass
Outline: as §1

[4] = test system: ragweed (common ragweed, Ambrosia elatior); assay: Test A postemergence; details: Ambrosia artemisiifolia, post-emergence, 240 h, Postemergence, read-out: Plant response rating, Ragweed
Outline: as §1

corn (Zea mays) = assay: Test A postemergence; details: Zea mays, post-emergence, 240 h, Postemergence
Outline: as §1

[5] = test system: Galium (catchweed bedstraw, Galium aparine); assay: Test A postemergence; details: Galium, post-emergence, 240 h, Postemergence, read-out: Plant response rating, Galium
Outline: as §1

Kochia (Kochia scoparia) [6] = assay: Test A postemergence; details: Bassia scoparia, post-emergence, 240 h, Postemergence, read-out: Plant response rating, Kochia
Outline: as §1

[7] = test system: pigweed (Amaranthus retroflexus); assay: Test A postemergence; details: Amaranthus retroflexus, post-emergence, 240 h, Postemergence, read-out: Plant response rating, Pigweed
Outline: as §1

[8] = test system: blackgrass (Alopecurus myosuroides); assay: Test A postemergence; details: Alopecurus myosuroides, post-emergence, 240 h, Postemergence, read-out: Plant response rating, Blackgrass
Outline: as §1

[9] = test system: wheat (Triticum aestivum); assay: Test A postemergence; details: Triticum aestivum, post-emergence, 240 h, Postemergence, read-out: Plant response rating, Wheat
Outline: as §1

rice (Oryra sativa) = assay: Test B flooded paddy test; details: Oryza sativa, 250 g ai/ha, Flood; 0 to 100 scale where 0 is no effect and 100 is complete control; read-out: Rice plant response rating
Outline: (§2)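 Response scored visually against untreated controls, 0 = no effect and 100 = complete control, 13–15 d after treatment in the greenhouse. Compounds added to paddy water held 3 cm above soil surface. Treatment given at 2-leaf stage.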

[10] = test system: barnyardgrass (Echinochloa crus-galli); assay: Test B flooded paddy test; details: Echinochloa crus-galli, 250 g ai/ha, Flood; 0 to 100 scale where 0 is no effect and 100 is complete control; read-out: Barnyardgrass plant response rating
Outline: as §2

[11] = test system: sedge, umbrella (small-flower umbrella sedge, Cyperus difformis); assay: Test B flooded paddy test; details: Cyperus difformis, 250 g ai/ha, Flood; 0 to 100 scale where 0 is no effect and 100 is complete control; read-out: Sedge, Umbrella plant response rating
Outline: as §2

[12] = test system: ducksalad (Heteranthera limosa); assay: Test B flooded paddy test; details: Heteranthera limosa, 250 g ai/ha, Flood; 0 to 100 scale where 0 is no effect and 100 is complete control; read-out: Ducksalad plant response rating
Outline: as §2

[13] = test system: giant foxtail (Setaria faberii); assay: Test A preemergence; details: Setaria faberi, pre-emergence, 240 h, Preemergence
Outline: as §1

[14] = test system: ryegrass, Italian (Italian ryegrass, Lolium multiflorum); assay: Test A preemergence; details: Lolium multiflorum, pre-emergence, 240 h, Preemergence
Outline: as §1

[15] = test system: barnyardgrass (Echinochloa crus-galli); assay: Test A preemergence; details: Echinochloa crus-galli, pre-emergence, 240 h, Preemergence
Outline: as §1

[16] = test system: ragweed (common ragweed, Ambrosia elatior); assay: Test A preemergence; details: Ambrosia artemisiifolia, pre-emergence, 240 h, Preemergence
Outline: as §1

Kochia (Kochia scoparia) [17] = assay: Test A preemergence; details: Bassia scoparia, pre-emergence, 240 h, Preemergence
Outline: as §1

[18] = test system: pigweed (Amaranthus retroflexus); assay: Test A preemergence; details: Amaranthus retroflexus, pre-emergence, 240 h, Preemergence
[19] = 125 g ai/ha, visual injury after approximately 10 d, 0 to 100 scale where 0 is no effect and 100 is complete control
[20] = 31 g ai/ha, visual injury after approx. 10 d, 0 to 100 scale, 0 no effect, 100 complete control

CC(C)=CC1CNC(=O)C1C(=O)Nc1cccc(F)c1F (stereo not drawn) [Compound 1012]
pest or weed control at 125 g/ha [1, 19]: 0%
pest or weed control at 31 g/ha [1, 20]: 0%
pest or weed control at 125 g/ha [2, 19]: 0%
pest or weed control at 31 g/ha [2, 20]: 0%
pest or weed control at 125 g/ha [3, 19]: 0%
pest or weed control at 31 g/ha [3, 20]: 0%
pest or weed control at 125 g/ha [4, 19]: 0%
pest or weed control at 31 g/ha [4, 20]: 0%
Corn plant response rating (crop injury, 0 = no effect, 100 = complete kill) at 125 g/ha (corn (Zea mays); [19]): 0%
Corn plant response rating (crop injury, 0 = no effect, 100 = complete kill) at 31 g/ha (corn (Zea mays); [20]): 0%
pest or weed control at 125 g/ha [5, 19]: 0%
pest or weed control at 31 g/ha [5, 20]: 0%
pest or weed control at 125 g/ha (Kochia (Kochia scoparia) [6]; [19]): 0%
pest or weed control at 31 g/ha (Kochia (Kochia scoparia) [6]; [20]): 0%
pest or weed control at 125 g/ha [7, 19]: 0%
pest or weed control at 31 g/ha [7, 20]: 0%
pest or weed control at 125 g/ha [8, 19]: 0%
pest or weed control at 31 g/ha [8, 20]: 0%
plant injury at 125 g/ha [9, 19]: 0%
plant injury at 31 g/ha [9, 20]: 0%
pest or weed control at 250 g/ha (rice (Oryra sativa)): 20%
pest or weed control at 250 g/ha [10]: 0%
pest or weed control at 250 g/ha [11]: 0%
pest or weed control at 250 g/ha [12]: 0%
pest or weed control at 125 g/ha ([13]; 125 g ai/ha, visual injury rating after approximately 10 d, read-out: Foxtail, Giant plant response rating (0 to 100 scale, 0 is no effect, 100 is complete control)): 0%
pest or weed control at 31 g/ha ([13]; 31 g ai/ha, 0 to 100 scale (0 no effect, 100 complete control), read-out: Plant response rating, Foxtail, Giant): 0%
pest or weed control at 31 g/ha ([14]; 31 g ai/ha, 0 to 100 scale where 0 is no effect and 100 is complete control, read-out: Ryegrass, Italian plant response rating): 0%
pest or weed control at 125 g/ha ([14]; 125 g ai/ha, visual injury rating after approximately 10 d, read-out: Ryegrass, Italian plant response rating (0 to 100 scale, 0 is no effect, 100 is complete control)): 0%
pest or weed control at 125 g/ha ([15]; 125 g ai/ha, visual injury rating after approximately 10 d, read-out: Barnyardgrass plant response rating (0 to 100 scale, 0 is no effect, 100 is complete control)): 0%
pest or weed control at 31 g/ha ([15]; 31 g ai/ha, 0 to 100 scale (0 no effect, 100 complete control), read-out: Plant response rating, Barnyardgrass): 0%
pest or weed control at 31 g/ha ([16]; 31 g ai/ha, 0 to 100 scale where 0 is no effect and 100 is complete control, read-out: Ragweed plant response rating): 0%
pest or weed control at 125 g/ha ([16]; 125 g ai/ha, visual injury rating after approximately 10 d, read-out: Ragweed plant response rating (0 to 100 scale, 0 is no effect, 100 is complete control)): 0%
pest or weed control at 31 g/ha (Kochia (Kochia scoparia) [17]; 31 g ai/ha, 0 to 100 scale where 0 is no effect and 100 is complete control, read-out: Kochia plant response rating): 0%
pest or weed control at 125 g/ha (Kochia (Kochia scoparia) [17]; 125 g ai/ha, visual injury rating after approximately 10 d, read-out: Kochia plant response rating (0 to 100 scale, 0 is no effect, 100 is complete control)): 0%
pest or weed control at 31 g/ha ([18]; 31 g ai/ha, 0 to 100 scale where 0 is no effect and 100 is complete control, read-out: Pigweed plant response rating): 0%
pest or weed control at 125 g/ha ([18]; 125 g ai/ha, visual injury rating after approximately 10 d, read-out: Pigweed plant response rating (0 to 100 scale, 0 is no effect, 100 is complete control)): 0%
